Laboratory results: US20250214991A1 (Oncopia Therapeutics, Inc. d/b/a/ SK Life Science Labs, priority 2022, published 2025)

Key:
IKZF2 = IKZF2 (Homo sapiens (Human), UniProt Q96SW2+Q9UKS7); experiment: In vitro IKZF2 HiBit Assay (HEK293T Flp-in-HiBiT cells); format: cell-based; details: HEK293T Flp-in-HiBiT cells, 6 hrs incubation; for DC50: read-out: IKZF2 HiBit DC50; for Dmax: HEK-293T, read-out: IKZF2 HiBit Dmax (%)
Experimental: In Vitro IKZF2 HiBit Assay
The HiBiT protein tagging system was applied to modified HEK293T Flp-in-HiBiT cells (polyclone) via a CRISPR/Cas9-mediated insertion of the HiBiT peptide tag (Promega™) to the N-terminus of the IKZF2 gene locus (Neon™ transfection system). Test and reference compounds are diluted from 1 mM at 3 folds for 11 doses. 25 nL of diluted compound is transfered to assay plates (Corning3570) using ECHO550, the final DMSO concentration @ 0.1%. The cells are seeded in 3000/25 μL/well to compound plates. It is then incubated for 6 hrs in TC incubator. The amount of Nano-Glo® HiBiT lytic reagent needed to perform the desired experiments is calculated. The Nano-Glo® HiBiT lytic reagent is brought to room temperature. The LgBiT protein is diluted to 1:100 and the Nano-Glo® HiBiT lytic substrate is diluted to 1:50 into an appropriate volume of room temperature Nano-Glo® HiBiT lytic buffer. 15 μL of the detection reagent (or without LgBiT) is dispensed to corresponding well according to the layout. The plate is then shaked for 10 mins at room temperature. After briefly centrifuge, the plate is read on Envision. At the indicated timepoints, the Nano-Glo® HiBiT lytic detection system (Promega™) was utilized for detecting bioluminescence of the HiBiT tag in treated cells: abundance of the tag is proportionate to the level of luminescence. Following normalization to DMSO, dose-response curves were plotted (GraphPad Prism) to determine the concentration points at which 50% of HiBiT-Helios degradation was achieved by each compound. The extent of degradation (range of luminescence) from the highest to lowest concentration points was calculated to determine the Dmax.
(§1) DC50, A: <1 nM; B: 1-10 nM; C: 10-100 nM; D: 100-1000 nM; E: 1000-10000 nM; F: >10,000 nM. Dmax, A: >80%; B: 60-80%; C: 40-60%; D: 20-40%; E: <20%.

IKZF1 = IKZF1 (Homo sapiens (Human), UniProt Q13422+Q96SW2); experiment: In vitro IKZF1 HiBit Assay (HEK293T Flp-in-HiBiT-IKZF1 stable cell line); format: cell-based; details: HEK293T Flp-in-HiBiT-IKZF1 stable cell line, 6 hrs incubation; for DC50: read-out: IKZF1 HiBit DC50; for Dmax: HEK-293T, read-out: IKZF1 HiBit Dmax (%)
Sequence of IKZF1 (Q13422 whole entry): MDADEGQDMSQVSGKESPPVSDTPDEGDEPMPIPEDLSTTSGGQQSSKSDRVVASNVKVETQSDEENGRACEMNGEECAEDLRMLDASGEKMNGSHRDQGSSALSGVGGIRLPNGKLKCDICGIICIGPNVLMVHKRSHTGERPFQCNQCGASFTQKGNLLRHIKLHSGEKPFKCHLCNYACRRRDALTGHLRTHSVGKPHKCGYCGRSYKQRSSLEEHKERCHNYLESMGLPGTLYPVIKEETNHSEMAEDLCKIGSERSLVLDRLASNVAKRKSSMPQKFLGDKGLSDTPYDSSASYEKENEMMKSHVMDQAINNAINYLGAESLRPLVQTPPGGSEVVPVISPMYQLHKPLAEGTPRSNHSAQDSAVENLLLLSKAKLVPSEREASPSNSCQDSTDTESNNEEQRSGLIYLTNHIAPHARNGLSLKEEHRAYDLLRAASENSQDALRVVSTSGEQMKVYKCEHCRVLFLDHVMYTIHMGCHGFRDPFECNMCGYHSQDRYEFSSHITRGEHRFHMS
Sequence of IKZF1 (Q96SW2 whole entry): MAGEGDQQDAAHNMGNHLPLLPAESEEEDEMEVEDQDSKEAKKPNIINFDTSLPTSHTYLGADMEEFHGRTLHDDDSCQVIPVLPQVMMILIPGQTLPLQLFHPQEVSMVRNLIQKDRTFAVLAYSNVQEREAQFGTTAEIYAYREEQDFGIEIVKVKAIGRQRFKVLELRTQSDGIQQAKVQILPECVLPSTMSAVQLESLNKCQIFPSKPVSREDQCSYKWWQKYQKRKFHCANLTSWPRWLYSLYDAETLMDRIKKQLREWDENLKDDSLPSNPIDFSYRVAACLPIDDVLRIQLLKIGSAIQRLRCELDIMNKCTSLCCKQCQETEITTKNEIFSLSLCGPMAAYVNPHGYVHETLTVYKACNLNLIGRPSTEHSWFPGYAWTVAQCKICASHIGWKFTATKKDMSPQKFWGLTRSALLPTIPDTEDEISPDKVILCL
Sequence of IKZF1 (Q16531 2-1140 partner): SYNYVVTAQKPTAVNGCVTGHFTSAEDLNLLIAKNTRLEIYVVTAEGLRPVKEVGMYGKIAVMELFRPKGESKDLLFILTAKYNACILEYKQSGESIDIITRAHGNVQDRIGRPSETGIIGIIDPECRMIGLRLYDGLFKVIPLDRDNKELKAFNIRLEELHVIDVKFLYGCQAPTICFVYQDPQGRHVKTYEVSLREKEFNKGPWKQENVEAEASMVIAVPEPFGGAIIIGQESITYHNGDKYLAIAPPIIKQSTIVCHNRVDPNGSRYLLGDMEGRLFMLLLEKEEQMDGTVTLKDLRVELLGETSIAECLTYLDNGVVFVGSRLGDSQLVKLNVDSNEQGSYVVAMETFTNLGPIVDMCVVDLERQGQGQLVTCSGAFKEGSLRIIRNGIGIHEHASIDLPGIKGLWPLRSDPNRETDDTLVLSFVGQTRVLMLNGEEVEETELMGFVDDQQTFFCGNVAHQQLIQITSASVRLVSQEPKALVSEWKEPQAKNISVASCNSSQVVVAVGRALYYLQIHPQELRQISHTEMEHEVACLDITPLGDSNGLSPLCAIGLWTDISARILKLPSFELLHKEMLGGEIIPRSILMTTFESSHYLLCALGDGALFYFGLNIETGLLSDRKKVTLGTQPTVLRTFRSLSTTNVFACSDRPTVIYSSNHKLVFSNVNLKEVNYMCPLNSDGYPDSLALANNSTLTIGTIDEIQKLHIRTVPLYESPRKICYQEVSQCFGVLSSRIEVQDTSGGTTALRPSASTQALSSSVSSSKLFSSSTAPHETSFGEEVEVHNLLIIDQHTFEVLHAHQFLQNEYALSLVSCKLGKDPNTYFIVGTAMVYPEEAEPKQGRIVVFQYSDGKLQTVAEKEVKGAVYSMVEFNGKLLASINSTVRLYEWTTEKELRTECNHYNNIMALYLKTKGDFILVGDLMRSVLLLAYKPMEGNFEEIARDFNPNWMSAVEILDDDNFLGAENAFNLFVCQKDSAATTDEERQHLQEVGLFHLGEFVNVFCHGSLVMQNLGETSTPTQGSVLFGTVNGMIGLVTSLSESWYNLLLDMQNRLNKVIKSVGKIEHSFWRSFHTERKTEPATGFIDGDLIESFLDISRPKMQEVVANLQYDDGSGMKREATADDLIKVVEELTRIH
Experimental: In Vitro IKZF1 HiBit Assay
The HiBiT protein tagging system was applied to modified Cells: modified HEK293T Flp-in-HiBiT-IKZF1 stable cell line (polyclone) via a CRISPR/Cas9-mediated insertion of the HiBiT peptide tag (Promega™) to the N-terminus of the […] gene locus (Neon™ transfection system).
25 nL of diluted compound is transferred to assay plates (Corning3571) using ECHO550, the final DMSO concentration @ 0.1%. The cells are seeded in 3000/25 μL/well to compound plates. The plates are incubated for 6 hrs in TC incubator. The amount of Nano-Glo® HiBiT lytic reagent needed to perform the desired experiments is calculated. The Nano-Glo® HiBiT lytic reagent is brought to room temperature. The LgBiT protein is diluted to 1:100 and the Nano-Glo® HiBiT lytic substrate is brought to 1:50 into an appropriate volume of room temperature Nano-Glo® HiBiT lytic buffer. 15 μL of the detection reagent (or without LgBiT) is dispensed to corresponding well according to the layout. The plate is shaked for 10 mins at room temperature. After briefly centrifuge, the plateis read on Envision. At the indicated timepoints, the Nano-Glo® HiBiT lytic detection system (Promega™) was utilized for detecting bioluminescence of the HiBiT tag in treated cells: abundance of the tag is proportionate to the level of luminescence. Following normalization to DMSO, dose-response curves were plotted (GraphPad Prism) to determine the concentration points at which 50% of HiBiT-Ikaros degradation was achieved by each compound. The extent of degradation (range of luminescence) from the highest to lowest concentration points was calculated to determine the Dmax.
as §1

Sequence of IKZF2 (Q9UKS7 whole entry): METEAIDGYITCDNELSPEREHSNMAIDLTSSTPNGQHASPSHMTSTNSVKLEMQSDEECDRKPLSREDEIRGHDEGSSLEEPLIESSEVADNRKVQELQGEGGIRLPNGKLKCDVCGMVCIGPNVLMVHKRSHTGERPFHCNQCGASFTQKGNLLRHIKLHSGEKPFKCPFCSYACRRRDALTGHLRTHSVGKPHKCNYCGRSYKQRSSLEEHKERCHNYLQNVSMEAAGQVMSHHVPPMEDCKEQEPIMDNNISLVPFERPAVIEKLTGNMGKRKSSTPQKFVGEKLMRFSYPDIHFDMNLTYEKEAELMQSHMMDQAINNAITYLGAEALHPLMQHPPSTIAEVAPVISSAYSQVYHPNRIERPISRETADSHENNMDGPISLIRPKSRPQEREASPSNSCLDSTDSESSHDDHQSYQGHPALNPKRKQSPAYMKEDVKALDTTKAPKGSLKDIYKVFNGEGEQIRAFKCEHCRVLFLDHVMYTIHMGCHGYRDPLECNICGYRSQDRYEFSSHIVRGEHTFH
Sequence of IKZF2 (Q96SW2 whole entry): as the sequence (Q96SW2 whole entry) above
Sequence of IKZF2 (Q16531 2-1140 partner): as the sequence (Q16531 2-1140 partner) above

CC(Oc1ccnc2c(CN3CCCC3)cc(-c3ccc4c(c3)CN(C3CCC(=O)NC3=O)C4=O)nc12)C(F)(F)F (centres unmarked) [Example 279, 3-(1-oxo-5-(4-(pyrrolidin-1-ylmethyl)-8-((1,1,1-trifluoropropan-2-yl)oxy)-1,5-naphthyridin-2-yl)isoindolin-2-yl) piperidine-2,6-dione]
DC50 (IKZF2): 1 to 10 nM | Dmax (IKZF2): 60 to 80% | DC50 (IKZF1): > 10000 nM | Dmax (IKZF1): < 20%

Cc1nc2c(CN3CCCC3)cc(-c3ccc4c(c3)CN(C3CCC(=O)NC3=O)C4=O)nc2n1C1COC1 (centres unmarked) [Example 258, 3-(5-(2-methyl-3-(oxetan-3-yl)-7-(pyrrolidin-1-ylmethyl)-3H-imidazo[4,5-b]pyridin-5-yl)-1-oxoisoindolin-2-yl) piperidine-2,6-dione]
DC50 (IKZF2): 10 to 100 nM | Dmax (IKZF2): 60 to 80% | DC50 (IKZF1): > 10000 nM | Dmax (IKZF1): < 20%

O=C1CCC(N2Cc3cc(-c4cc(CN5CCCC5)c5nccc(OCCO)c5n4)ccc3C2=O)C(=O)N1 (centres unmarked) [Example 285, 3-(5-(8-(2-hydroxyethoxy)-4-(pyrrolidin-1-ylmethyl)-1,5-naphthyridin-2-yl)-1-oxoisoindolin-2-yl) piperidine-2,6-dione]
DC50 (IKZF2): 1 to 10 nM | Dmax (IKZF2): 20 to 40% | DC50 (IKZF1): > 10000 nM | Dmax (IKZF1): < 20%

CNc1[nH]nc2c(CN3CCCC3)cc(-c3ccc4c(c3F)CN(C3CCC(=O)NC3=O)C4=O)nc12 (centres unmarked) [Example 296, 3-(4-fluoro-5-(3-(methylamino)-7-(pyrrolidin-1-ylmethyl)-1H-pyrazolo[4,3-b]pyridin-5-yl)-1-oxoisoindolin-2-yl) piperidine-2,6-dione]
DC50 (IKZF2): < 1 nM | Dmax (IKZF2): > 80% | DC50 (IKZF1): 1 to 10 nM | Dmax (IKZF1): 60 to 80%

Cc1cc(-c2ccc3c(c2)CN(C2CCC(=O)NC2=O)C3=O)nc2oc(CN3CCCC3)nc12 (centres unmarked) [Example 198, 3-(5-(7-methyl-2-(pyrrolidin-1-ylmethyl)oxazolo [5,4-b]pyridin-5-yl)-1-oxoisoindolin-2-yl) piperidine-2,6-dione]
DC50 (IKZF2): 10 to 100 nM | Dmax (IKZF2): 40 to 60% | DC50 (IKZF1): > 10000 nM | Dmax (IKZF1): < 20%

CC(C)Nc1n[nH]c2c(CN3CCCC3)cc(-c3ccc4c(c3)CN(C35CC(C3)C(=O)NC5=O)C4=O)nc12 [Example 298, 1-(5-(3-(isopropylamino)-7-(pyrrolidin-1-ylmethyl)-1H-pyrazolo[4,3-b]pyridin-5-yl)-1-oxoisoindolin-2-yl)-3-azabicyclo[3.1.1]heptane-2,4-dione]
DC50 (IKZF2): < 1 nM | Dmax (IKZF2): 20 to 40% | DC50 (IKZF1): > 10000 nM | Dmax (IKZF1): < 20%

CC(=O)N1CC(n2ccc3c(CN4CCCC4)cc(-c4ccc5c(c4)CN(C4CCC(=O)NC4=O)C5=O)nc32)C1 (centres unmarked) [Example 256, 3-(5-(1-(1-acetylazetidin-3-yl)-4-(pyrrolidin-1-ylmethyl)-1H-pyrrolo[2,3-b]pyridin-6-yl)-1-oxoisoindolin-2-yl) piperidine-2,6-dione]
DC50 (IKZF2): 10 to 100 nM | Dmax (IKZF2): > 80% | DC50 (IKZF1): > 10000 nM | Dmax (IKZF1): < 20%

O=C1CC[C@H](N2Cc3cc(-c4cc(CN5CCCC5)c5ccn(-c6cn[nH]c6)c5n4)ccc3C2=O)C(=O)N1 [Example 271, (S)-3-(5-(1-(1H-pyrazol-4-yl)-4-(pyrrolidin-1-ylmethyl)-1H-pyrrolo[2,3-b]pyridin-6-yl)-1-oxoisoindolin-2-yl) piperidine-2,6-dione]
DC50 (IKZF2): 1 to 10 nM | Dmax (IKZF2): > 80% | DC50 (IKZF1): 100 to 1000 nM | Dmax (IKZF1): 20 to 40%

CCc1c(-c2ccc3c(c2)CN(C2CCC(=O)NC2=O)C3=O)nc2c(ccn2C2COC2)c1CN1CCCC1 (centres unmarked) [Example 262, 3-(5-(5-ethyl-1-(oxetan-3-yl)-4-(pyrrolidin-1-ylmethyl)-1H-pyrrolo[2,3-b]pyridin-6-yl)-1-oxoisoindolin-2-yl) piperidine-2,6-dione]
DC50 (IKZF2): 1 to 10 nM | Dmax (IKZF2): 60 to 80% | DC50 (IKZF1): > 10000 nM | Dmax (IKZF1): < 20%

O=C1CCC(N2Cc3cc(-c4cc(CN5CCCC5)c5nccc(C6CCC6)c5n4)ccc3C2=O)C(=O)N1 (centres unmarked) [Example 247, 3-(5-(8-cyclobutyl-4-(pyrrolidin-1-ylmethyl)-1,5-naphthyridin-2-yl)-1-oxoisoindolin-2-yl) piperidine-2,6-dione]
DC50 (IKZF2): 10 to 100 nM | Dmax (IKZF2): 40 to 60% | DC50 (IKZF1): > 10000 nM | Dmax (IKZF1): < 20%

O=C1CCC(N2Cc3cc(-c4cc(CN5CCCC5C(F)(F)F)c5ccn(C6COC6)c5n4)ccc3C2=O)C(=O)N1 (centres unmarked) [Example 253, 3-(5-(1-(oxetan-3-yl)-4-((2-(trifluoromethyl)pyrrolidin-1-yl)methyl)-1H-pyrrolo[2,3-b]pyridin-6-yl)-1-oxoisoindolin-2-yl) piperidine-2,6-dione]
DC50 (IKZF2): 10 to 100 nM | Dmax (IKZF2): 40 to 60% | DC50 (IKZF1): > 10000 nM | Dmax (IKZF1): < 20%

O=C1CCC(N2Cc3cc(-c4cc(CN5CCCC5)c5ccn(C6COC6)c5n4)c(Cl)cc3C2=O)C(=O)N1 (centres unmarked) [Example 273, 3-(6-chloro-5-(1-(oxetan-3-yl)-4-(pyrrolidin-1-ylmethyl)-1H-pyrrolo[2,3-b]pyridin-6-yl)-1-oxoisoindolin-2-yl) piperidine-2,6-dione]
DC50 (IKZF2): > 10000 nM | Dmax (IKZF2): < 20% | DC50 (IKZF1): > 10000 nM | Dmax (IKZF1): < 20%

Cn1nc(N)c2nc(-c3ccc4c(c3)CN(C3CCC(=O)NC3=O)C4=O)cc(CN3CCCC3)c21 (centres unmarked) [Example 183, 3-(5-(3-amino-1-methyl-7-(pyrrolidin-1-ylmethyl)-1H-pyrazolo[4,3-b]pyridin-5-yl)-1-oxoisoindolin-2-yl) piperidine-2,6-dione]
DC50 (IKZF2): 1 to 10 nM | Dmax (IKZF2): > 80% | DC50 (IKZF1): 10 to 100 nM | Dmax (IKZF1): 40 to 60%

CC(C)C1CN(Cc2cc(-c3ccc4c(c3)CN(C3CCC(=O)NC3=O)C4=O)nc3[nH]ccc23)CC1O (centres unmarked) [Example 137, 3-(5-(4-((3-hydroxy-4-isopropylpyrrolidin-1-yl)methyl)-1H-pyrrolo[2,3-b]pyridin-6-yl)-1-oxoisoindolin-2-yl) piperidine-2,6-dione]
DC50 (IKZF2): 1 to 10 nM | Dmax (IKZF2): > 80% | DC50 (IKZF1): 10 to 100 nM | Dmax (IKZF1): 20 to 40%

CC(C)Nc1n[nH]c2c(CN3CCC(F)C3)cc(-c3ccc4c(c3F)CN(C3CCC(=O)NC3=O)C4=O)nc12 (centres unmarked) [Example 286]
DC50 (IKZF2): 1 to 10 nM | Dmax (IKZF2): 60 to 80% | DC50 (IKZF1): > 10000 nM | Dmax (IKZF1): < 20%

O=C1CC[C@H](N2Cc3cc(-c4cc(CN5CCCC5)c5ccn(-c6ncco6)c5n4)ccc3C2=O)C(=O)N1 [Example 267, (S)-3-(5-(1-(oxazol-2-yl)-4-(pyrrolidin-1-ylmethyl)-1H-pyrrolo[2,3-b]pyridin-6-yl)-1-oxoisoindolin-2-yl) piperidine-2,6-dione]
DC50 (IKZF2): 1 to 10 nM | Dmax (IKZF2): 60 to 80% | DC50 (IKZF1): > 10000 nM | Dmax (IKZF1): < 20%

COCCOc1ccnc2c(CN3CCCC3)cc(-c3ccc4c(c3)CN(C3CCC(=O)NC3=O)C4=O)nc12 (centres unmarked) [Example 278, 3-(5-(8-(2-methoxyethoxy)-4-(pyrrolidin-1-ylmethyl)-1,5-naphthyridin-2-yl)-1-oxoisoindolin-2-yl) piperidine-2,6-dione]
DC50 (IKZF2): > 10000 nM | Dmax (IKZF2): < 20% | DC50 (IKZF1): > 10000 nM | Dmax (IKZF1): < 20%
